# Results published in patent publication US9663449B2, “Lipid containing formulations” (ARBUTUS BIOPHARMA CORPORATION, priority 2006, dated 2017).
# System: Factor VII
# Assay: In vivo Factor VII silencing assay, serum Factor VII by chromogenic kit
# Parameters: species or system C57BL/6 mice
# Conditions: 2 mg/kg siRNA; FIG. 1; suggested, 5 tail and/or 6 tail, most abundant species in ND98 6:1 preparation
# Procedure: Applicants have discovered that certain polyamine lipid moieties provide desirable properties for administration of nucleic acids, such as siRNA. For example, in some embodiments, a lipid moiety is complexed with a Factor VII-targeting siRNA and administered to an animal such as a mouse. The level of secreted serum Factor VII is then quantified (24 h post administration), where the degree of Factor VII silencing indicates the degree of in vivo siRNA delivery. Accordingly, lipids providing enhanced in vivo delivery of a nucleic acid such as siRNA are preferred. In particular, Applicants have discovered polyamines having substitutions described herein can have desirable properties for delivering siRNA, such as bioavailability, biodegradability, and tolerability.
# C57BL/6 mice received tail vein injections of saline or various lipid formulations. Lipid-formulated siRNAs are administered at varying doses in an injection volume of 10 μL/g animal body weight. Twenty-four hours after administration, serum samples are collected by retroorbital bleed. Serum Factor VII concentrations are determined using a chromogenic diagnostic kit (Coaset Factor VII Assay Kit, DiaPharma) according to manufacturer protocols.
# The effectiveness of lipid compositions can be tested by determining the relative ability of a lipid to deliver an siRNA moiety to a target. […]
structure (smiles),measurement,value
CCCCCCCCCCCCNC(=O)CCN(CCC(=O)NCCCCCCCCCCCC)CCN(CCC(=O)NCCCCCCCCCCCC)CCN(CCC(=O)NCCCCCCCCCCCC)CCN(CCC(=O)NCCCCCCCCCCCC)CCC(=O)NCCCCCCCCCCCC [Compound 5],"FVII silencing, active lipid species",active species
